smiles,measurement,setting,value
"C/C=C/C=C/C(=O)[O-].[K+] [Potassium sorbate, potassium sorbate]",change in zeta potential,"as potassium sorbate concentration is increased (0.0001% to 10%), no added sodium chloride",less negative
same,effect on the zeta potential,concentrations below approximately 0.01%,no effect

# From US20130261241A1, “METHODS FOR CONTROLLING WATER AMOUNT IN A POLYMER COMPOSITION OR SUBSTRATE” (Bendiner Technologies, LLC, priority 2009, published 2013)
